The results in this text go back to ChEMBL document CHEMBL3039007, “Structure-based identification of OATP1B1/3 inhibitors” (Mol Pharmacol, 2013).

In data set [1] the target is T1, Solute carrier organic anion transporter family member 1B1 (Homo sapiens, UniProt Q9Y6L6).
T1 sequence (Q9Y6L6 whole entry): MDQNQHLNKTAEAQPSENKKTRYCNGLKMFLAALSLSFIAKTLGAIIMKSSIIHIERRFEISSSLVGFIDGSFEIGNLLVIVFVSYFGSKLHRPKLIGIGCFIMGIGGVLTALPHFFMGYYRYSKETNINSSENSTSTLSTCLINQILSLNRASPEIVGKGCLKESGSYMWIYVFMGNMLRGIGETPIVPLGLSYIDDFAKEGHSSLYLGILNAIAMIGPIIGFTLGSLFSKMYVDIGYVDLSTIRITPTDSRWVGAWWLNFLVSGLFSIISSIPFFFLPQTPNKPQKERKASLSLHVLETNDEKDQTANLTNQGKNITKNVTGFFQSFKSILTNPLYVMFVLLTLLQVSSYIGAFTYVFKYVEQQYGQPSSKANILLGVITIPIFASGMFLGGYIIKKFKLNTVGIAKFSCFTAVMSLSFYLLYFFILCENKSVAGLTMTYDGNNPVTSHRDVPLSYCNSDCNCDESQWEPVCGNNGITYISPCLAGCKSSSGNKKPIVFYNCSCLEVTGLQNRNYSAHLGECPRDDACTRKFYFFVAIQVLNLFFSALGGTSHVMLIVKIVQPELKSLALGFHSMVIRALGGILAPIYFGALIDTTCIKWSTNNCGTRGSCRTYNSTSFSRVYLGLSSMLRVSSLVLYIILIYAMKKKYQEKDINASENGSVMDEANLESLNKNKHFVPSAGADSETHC
The following applies: chinese hamster, cho, 10 µM.

For data set [2], the target named is T2, Solute carrier organic anion transporter family member 1B3 (Homo sapiens, UniProt Q9NPD5).
T2 sequence (Q9NPD5 whole entry): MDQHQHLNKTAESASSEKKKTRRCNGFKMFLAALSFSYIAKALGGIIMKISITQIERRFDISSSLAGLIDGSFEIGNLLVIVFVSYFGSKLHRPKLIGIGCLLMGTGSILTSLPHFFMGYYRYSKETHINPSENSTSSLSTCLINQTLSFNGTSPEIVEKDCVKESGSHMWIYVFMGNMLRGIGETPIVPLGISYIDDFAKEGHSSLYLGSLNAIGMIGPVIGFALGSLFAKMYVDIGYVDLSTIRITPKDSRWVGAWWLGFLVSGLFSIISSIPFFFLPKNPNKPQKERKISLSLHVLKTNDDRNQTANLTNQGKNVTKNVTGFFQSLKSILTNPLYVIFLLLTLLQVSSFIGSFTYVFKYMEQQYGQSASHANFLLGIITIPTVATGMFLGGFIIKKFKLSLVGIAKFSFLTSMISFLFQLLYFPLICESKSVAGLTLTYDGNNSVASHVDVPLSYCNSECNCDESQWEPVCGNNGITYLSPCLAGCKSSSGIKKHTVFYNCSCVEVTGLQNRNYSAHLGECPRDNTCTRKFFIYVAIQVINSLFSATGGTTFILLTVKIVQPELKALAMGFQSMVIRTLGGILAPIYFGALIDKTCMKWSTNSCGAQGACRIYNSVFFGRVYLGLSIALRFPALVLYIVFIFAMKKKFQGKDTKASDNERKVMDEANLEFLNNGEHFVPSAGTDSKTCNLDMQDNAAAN
The conditions noted are these: chinese hamster, cho, 10 µM.

Each structure is given as a SMILES string.

Consider `C=C1C(=O)O[C@@H]2C[C@@]3(C)CCC[C@H](C)C3=C[C@H]12` [HELENINE], for which the residual activity in data set [1] worked out at 116%; in data set [2], 115.2%.
For the compound `O=C1C=C2CC3(O)COc4c(ccc(O)c4O)C3=C2C=C1O` (stereo not given) [HEMATEIN], the residual activity in data set [1] was found to be 65.79%; in data set [2] it was 73.22%.
As to `Oc1cc2c(cc1O)[C@@H]1c3ccc(O)c(O)c3OC[C@]1(O)C2` [HEMATOXYLIN], the residual activity in data set [1] is on record as 88.87%; in data set [2] it was 91.69%.
Regarding `ClC1=C(Cl)C2(Cl)C3C(Cl)C=CC3C1(Cl)C2(Cl)Cl` (stereo not given) [HEPTACHLOR], the residual activity is listed as 98.77% in data set [1] and 131.9% in data set [2].
On the same counts, the results for `CC(N)CCCC(C)(C)O.Cl` (stereo not given) [HEPTAMINOL HYDROCHLORIDE] are 95.56% and 104.5%.
On the same counts, the results for `COc1ccc2ccc(=O)oc2c1` [HERNIARIN] are 148.3% and 104.5%.
On the same counts, the results for `COc1ccc([C@@H]2CC(=O)c3c(O)cc(O)cc3O2)cc1O` [HESPERETIN] are 98.42% and 113.3%.
As for `COc1ccc([C@@H]2CC(=O)c3c(O)cc(O[C@@H]4O[C@H](CO[C@@H]5O[C@@H](C)[C@H](O)[C@@H](O)[C@H]5O)[C@@H](O)[C@H](O)[C@H]4O)cc3O2)cc1O` [HESPERIDIN], the figures for the residual activity in data set [1] and in data set [2] were 106.1% and 110.2%, respectively.
`CC1(C)S[C@@H]2[C@H](N3C(=O)[C@@H](c4ccccc4)NC3(C)C)C(=O)N2[C@H]1C(=O)[O-].[K+]` [HETACILLIN POTASSIUM]: the residual activity is recorded as 81.9% in data set [1] and 89.09% in data set [2].
On to `Oc1c(Cl)cc(Cl)c(Cl)c1Cc1c(O)c(Cl)cc(Cl)c1Cl` [HEXACHLOROPHENE], for which the residual activity in data set [1] is 7.55%; in data set [2], 3.11%.
For `C[N+](C)(C)CCCCCC[N+](C)(C)C.[Br-].[Br-]` [HEXAMETHONIUM BROMIDE] the same measures were 76.07% and 77.59%.
Take `CC[C@H](c1ccc(O)cc1)[C@@H](CC)c1ccc(O)cc1` [HEXESTROL]: the residual activity in data set [1] was 46.62%; in data set [2], 43.21%.
On the same counts, the results for `CCCCC(CC)CN1CN(CC(CC)CCCC)CC(C)(N)C1` (stereo not given) [HEXETIDINE] are 75.93% and 102.1%.
For `CCCCCCc1ccc(O)cc1O` [HEXYLRESORCINOL] the same measures were 115.5% and 84.11%.
For `C[N+]1(C)[C@@H]2CC[C@H]1C[C@@H](OC(=O)C(O)c1ccccc1)C2.[Br-]` (stereo not given in full) [HOMATROPINE METHYLBROMIDE] the same measures were 77.55% and 73.94%.
Consider `CC[n+]1c(-c2ccccc2)c2cc(N)ccc2c2ccc(N)cc21.[Br-]` [HOMIDIUM BROMIDE], for which the residual activity in data set [1] is listed as 98.94%; in data set [2], 100.7%.
On the same counts, the results for `COC(=O)C[C@H]1C(C)(C)C(OC(C)=O)[C@]2(O)C=C3C4CC(=O)O[C@@H](c5ccoc5)[C@]4(C)CCC3[C@@]1(C)C2=O` (stereo not given in full) [HUMILIN A] are 22.34% and 34.35%.
For the compound `C/C=C1\[C@H]2C=C(C)C[C@]1(N)c1ccc(=O)[nH]c1C2` [HUPERZINE A], the results for the residual activity in data set [1] and in data set [2] were 93.86% and 101.3%, respectively.
For `CCN(CC)CCNc1ccc(CO)c2sc3ccccc3c(=O)c12` [HYCANTHONE] the same measures were 79.76% and 100.5%.
For `Cl.NNc1nncc2ccccc12` [HYDRALAZINE HYDROCHLORIDE] the same measures were 87.74% and 115.1%.
On the same counts, the results for `CN1CCc2cc3c(cc2C1O)OCO3.Cl` (stereo not given) [HYDRASTININE HYDROCHLORIDE] are 62.32% and 73.39%.
`NS(=O)(=O)c1cc2c(cc1Cl)NCNS2(=O)=O` [HYDROCHLOROTHIAZIDE]: the residual activity in data set [1] worked out at 68.94%; in data set [2], 82.24%.
Regarding `CC(=O)OCC(=O)[C@@]1(O)CC[C@H]2[C@@H]3CCC4=CC(=O)CC[C@]4(C)[C@H]3[C@@H](O)C[C@@]21C` [HYDROCORTISONE ACETATE], the residual activity in data set [1] was found to be 93.94%; in data set [2] it was 91.1%.
Consider `CCCC(=O)O[C@]1(C(=O)CO)CC[C@H]2[C@@H]3CCC4=CC(=O)CC[C@]4(C)[C@H]3[C@@H](O)C[C@@]21C` [HYDROCORTISONE BUTYRATE], for which the residual activity in data set [1] came out at 100.3%; in data set [2], 98.06%.
For `C[C@]12CCC(=O)C=C1CC[C@@H]1[C@@H]2[C@@H](O)C[C@@]2(C)[C@H]1CC[C@]2(O)C(=O)COC(=O)CCC(=O)O` [HYDROCORTISONE HEMISUCCINATE ANHYDROUS], the residual activity turned out to be 93.98% in data set [1] and 101.8% in data set [2].
For `C[C@]12CCC(=O)C=C1CC[C@@H]1[C@@H]2[C@@H](O)C[C@@]2(C)[C@H]1CC[C@]2(O)C(=O)CO` [HYDROCORTISONE] the same measures were 98.24% and 113.8%.
Turning to `Br.COc1c2c(cc3c1OCO3)CCN(C)C2` [HYDROCOTARNINE HYDROBROMIDE], the residual activity turned out to be 99.81% in data set [1] and 89.75% in data set [2].
Turning to `COc1c2c(cc3c1OCO3)CCN(C)C2` [HYDROCOTARNINE], the residual activity in data set [1] turned out to be 77.76%; in data set [2], 98.91%.
On the same counts, the results for `NS(=O)(=O)c1cc2c(cc1C(F)(F)F)NCNS2(=O)=O` [HYDROFLUMETHIAZIDE] are 82.22% and 85.97%.
Take `CC(C)/C(O)=C1/C(=O)O[C@@H](c2ccoc2)[C@]2(C)C(O)[C@@H](O)[C@@]34OC5(C)OC67CC(C)(C(O)[C@]6(O)[C@@H](O)[C@]3(O5)C12)[C@H](CC(=O)O)[C@]74C` (stereo not given in full) [HYDROLYSIS PRODUCT OF BUSSEIN]: the residual activity in data set [1] worked out at 52.29%; in data set [2], 78.08%.
On the same counts, the results for `CC[C@H]1CN2CC[C@H]1C[C@@H]2[C@@H](O)c1ccnc2ccc(OC)cc12` [HYDROQUINIDINE] are 77.48% and 96.11%.
`Oc1ccc(O)cc1` [HYDROQUINONE]: the values for the residual activity in data set [1] and in data set [2] were 112.9% and 93.82%, respectively.
For the compound `Br.CC(N)Cc1ccc(O)cc1` (stereo not given) [HYDROXYAMPHETAMINE HYDROBROMIDE], the results for the residual activity in data set [1] and in data set [2] were 85.8% and 84.1%, respectively.
As to `CCN(CCO)CCCC(C)Nc1ccnc2cc(Cl)ccc12.O=S(=O)(O)O` (stereo not given) [HYDROXYCHLOROQUINE SULFATE], the residual activity in data set [1] is 90.44%; in data set [2], 90.84%.
`CCCCCC(=O)O[C@]1(C(C)=O)CC[C@H]2[C@@H]3CCC4=CC(=O)CC[C@]4(C)[C@H]3CC[C@@]21C` [HYDROXYPROGESTERONE CAPROATE]: the residual activity in data set [1] was 40.59%; in data set [2] it was 55.76%.
On the same counts, the results for `Cc1cccc(C(=O)O)c1O` [HYDROXYTOLUIC ACID] are 125.2% and 110.2%.
For `COc1ccc2c(C)cc(=O)oc2c1` [HYMECROMONE METHYL ETHER] the same measures were 109.2% and 127.1%.
On the same counts, the results for `O=c1[nH]cnc2nc[nH]c12` [HYPOXANTHINE] are 92.05% and 92.8%.
Consider `CC(C)Cc1ccc(C(C)C(=O)O)cc1` (stereo not given) [IBUPROFEN], for which the residual activity came to 111.7% in data set [1] and 98.25% in data set [2].
For `COc1ccc(-c2oc3c(CC=C(C)C)c(O[C@@H]4O[C@H](CO)[C@@H](O)[C@H](O)[C@H]4O)cc(O)c3c(=O)c2O[C@@H]2O[C@@H](C)[C@H](O)[C@@H](O)[C@H]2O)cc1` [ICARIIN] the same measures were 212.5% and 126.8%.

The term residual activity denotes the signal under treatment as a percentage of the control signal.
